Measured values from US9365588B2, “Benzoxazines as modulators of ion channels” (Vertex Pharmaceuticals Incorporated, priority 2011, dated 2016).

biological target: human NaV 1.7 (Homo sapiens, UniProt Q15858); experiment: E-VIPR optical membrane potential assay with electrical stimulation; assay type: cell-based; conditions: sodium channel inhibition; read-out: Binned Activity Data (IC50)
In short: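 Membrane-potential read-out: background-subtracted 460 nm/580 nm ratio during a 9 s current-controlled stimulus, 400 Hz scan. Before stimulation, NaV1.7-HEK cells carried coumarin/oxonol dye and compound (final DMSO 0.625%) for 20–35 min at room temperature; tetracaine 125 μM served as positive control.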

Chain of human NaV 1.7 (Q15858 whole entry): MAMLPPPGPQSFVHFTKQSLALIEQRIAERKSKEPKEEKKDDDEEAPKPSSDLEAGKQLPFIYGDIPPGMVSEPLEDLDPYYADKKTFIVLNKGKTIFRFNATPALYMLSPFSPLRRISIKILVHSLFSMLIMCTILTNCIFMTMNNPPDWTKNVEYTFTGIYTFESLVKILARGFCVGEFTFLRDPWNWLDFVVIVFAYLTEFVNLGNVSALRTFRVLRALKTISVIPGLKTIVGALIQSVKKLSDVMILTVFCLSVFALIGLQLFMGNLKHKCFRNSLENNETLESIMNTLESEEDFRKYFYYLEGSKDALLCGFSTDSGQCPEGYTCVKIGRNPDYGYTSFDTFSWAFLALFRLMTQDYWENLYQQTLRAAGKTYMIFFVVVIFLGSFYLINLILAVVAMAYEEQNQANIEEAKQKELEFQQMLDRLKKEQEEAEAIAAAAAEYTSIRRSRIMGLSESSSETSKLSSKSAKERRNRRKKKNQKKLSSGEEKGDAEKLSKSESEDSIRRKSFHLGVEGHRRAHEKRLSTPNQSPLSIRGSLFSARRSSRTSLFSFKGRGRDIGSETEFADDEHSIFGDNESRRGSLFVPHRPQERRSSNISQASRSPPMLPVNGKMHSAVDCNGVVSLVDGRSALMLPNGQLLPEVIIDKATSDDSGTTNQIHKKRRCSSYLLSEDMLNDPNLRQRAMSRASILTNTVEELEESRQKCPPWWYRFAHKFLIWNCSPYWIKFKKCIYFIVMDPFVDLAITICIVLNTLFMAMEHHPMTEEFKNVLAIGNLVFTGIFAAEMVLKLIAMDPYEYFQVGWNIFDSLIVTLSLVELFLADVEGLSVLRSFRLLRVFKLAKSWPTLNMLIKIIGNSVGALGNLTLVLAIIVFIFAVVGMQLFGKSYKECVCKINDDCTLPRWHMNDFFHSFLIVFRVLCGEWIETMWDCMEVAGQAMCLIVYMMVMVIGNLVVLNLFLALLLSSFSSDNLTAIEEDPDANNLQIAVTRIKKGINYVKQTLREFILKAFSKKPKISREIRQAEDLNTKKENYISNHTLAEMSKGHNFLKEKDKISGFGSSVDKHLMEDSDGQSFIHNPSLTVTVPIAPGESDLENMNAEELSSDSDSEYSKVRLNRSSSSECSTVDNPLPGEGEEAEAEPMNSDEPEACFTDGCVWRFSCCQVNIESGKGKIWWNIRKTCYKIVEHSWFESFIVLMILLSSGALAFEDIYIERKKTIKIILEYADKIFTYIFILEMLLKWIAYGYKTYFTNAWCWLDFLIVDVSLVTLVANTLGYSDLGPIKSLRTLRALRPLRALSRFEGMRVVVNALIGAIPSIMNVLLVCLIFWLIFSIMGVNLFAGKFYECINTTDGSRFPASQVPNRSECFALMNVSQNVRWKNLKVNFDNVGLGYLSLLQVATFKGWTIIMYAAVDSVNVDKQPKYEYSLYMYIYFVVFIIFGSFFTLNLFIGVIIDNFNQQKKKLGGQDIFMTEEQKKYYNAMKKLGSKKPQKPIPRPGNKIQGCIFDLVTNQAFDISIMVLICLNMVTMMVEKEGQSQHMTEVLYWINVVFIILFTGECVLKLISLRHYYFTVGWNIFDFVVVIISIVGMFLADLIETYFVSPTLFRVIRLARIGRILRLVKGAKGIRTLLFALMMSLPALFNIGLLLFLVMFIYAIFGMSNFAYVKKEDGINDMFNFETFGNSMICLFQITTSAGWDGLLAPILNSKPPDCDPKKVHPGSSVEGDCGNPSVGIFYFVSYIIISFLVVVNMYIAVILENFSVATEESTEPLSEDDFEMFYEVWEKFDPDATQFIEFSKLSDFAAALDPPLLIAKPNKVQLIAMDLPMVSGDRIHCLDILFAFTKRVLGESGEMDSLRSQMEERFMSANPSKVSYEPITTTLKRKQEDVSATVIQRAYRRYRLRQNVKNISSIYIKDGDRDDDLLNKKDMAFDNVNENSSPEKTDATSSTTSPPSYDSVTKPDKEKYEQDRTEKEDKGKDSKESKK

Compound	IC50
CC(C)Oc1ccc(C(=O)N2CCC3(CC2)Oc2ccccc2-c2c3cnn2C)c(C#N)c1 [Compound 40]	2000 to 5000 nM
COc1cc(C(=O)N2CCC3(CC2)Oc2ccccc2-c2nn(C)cc23)ccc1C(C)(C)C [Compound 754]	> 5000 nM
CCn1ncc2c1-c1cc(F)ccc1OC21CCN(C(=O)c2ccc(OC(C)C)c(OC)c2)CC1 [Compound 742]	2000 to 5000 nM
COc1cc(C(=O)N2CCC3(CC2)Oc2ccccc2-c2c3cnn2C)ccc1OC(F)F [Compound 169]	2000 to 5000 nM
Cn1ncc2c1-c1ccccc1OC21CCN(C(=O)c2ccc(OC3COC3)c(F)c2)CC1 [Compound 569]	> 5000 nM
COc1cc(C(=O)N2CCC3(CC2)Oc2ccccc2-n2c([S+](C)[O-])ccc23)ccc1OC(C)(C)C (centres unmarked) [Compound 46]	> 5000 nM
COc1cc(C(=O)N2CCC3(CC2)Oc2cc(Cl)ccc2-n2cccc23)ccc1C(C)(C)CO [Compound 417]	≤ 2000 nM
Cc1ccc2c(c1)OC1(CCN(C(=O)c3ccc(S(=O)(=O)C(C)C)cc3)CC1)c1ccc(C#N)n1-2 [Compound 440]	≤ 2000 nM
COc1cc(C(=O)N2CCC3(CC2)Oc2cc(Cl)ccc2-n2cccc23)ccc1C1(O)COC1 [Compound 287]	≤ 2000 nM
CC[C@@H](C)Oc1ccc(C(=O)N2CCC3(CC2)Oc2ccccc2-n2cccc23)cc1C#N [Compound 145]	≤ 2000 nM
CC(C)Oc1ccc(C(=O)N2CCC3(CC2)Oc2ccccc2-c2c3cnn2C)c(F)c1 [Compound 599]	≤ 2000 nM
Cn1cc2c(n1)-c1cc(F)ccc1OC21CCN(C(=O)c2ccccc2OC(F)(F)F)CC1 [Compound 175]	≤ 2000 nM
COc1c(C)cccc1C(=O)N1CCC2(CC1)Oc1ccccc1-c1c2cnn1C [Compound 109]	≤ 2000 nM
COc1c(Cl)cccc1C(=O)N1CCC2(CC1)Oc1ccccc1-c1c2cnn1C [Compound 673]	≤ 2000 nM
COc1ccc(C(=O)N2CCC3(CC2)Oc2ccccc2-n2c(C#N)ccc23)cc1C(F)(F)F [Compound 826]	≤ 2000 nM
COCCOc1ccc(C(=O)N2CCC3(CC2)Oc2ccccc2-c2c3ccn2C)cc1OC [Compound 298]	≤ 2000 nM
COc1cccc2[nH]cc(C(=O)N3CCC4(CC3)Oc3ccccc3-c3c4cnn3C)c12 [Compound 463]	≤ 2000 nM
COc1ccc(C(=O)N2CCC3(CC2)Oc2ccccc2-n2c(C(F)(F)F)ccc23)nc1C [Compound 872]	≤ 2000 nM
COC[C@H](C)Oc1ccc(C(=O)N2CCC3(CC2)Oc2cc(Cl)ccc2-n2cccc23)cc1OC [Compound 172]	≤ 2000 nM
Cn1ncc2c1-c1ccccc1OC21CCN(C(=O)c2ccc(O)c(F)c2)CC1 [Compound 856]	≤ 2000 nM
CCn1cccc(C(=O)N2CCC3(CC2)Oc2cc(Cl)ccc2-n2cccc23)c1=O [Compound 728]	≤ 2000 nM
Cn1ncc2c1-c1ccccc1OC21CCN(C(=O)c2nccc3ccccc23)CC1 [Compound 657]	> 5000 nM
O=C(c1ccc(OC(F)F)cc1)N1CCC2(CC1)Oc1ccccc1-n1c(C(F)(F)F)ccc12 [Compound 341]	> 5000 nM
COc1cc(C(=O)N2CCC3(CC2)Oc2ccccc2-n2c(C(F)(F)F)ccc23)ccc1OCC(N)=O [Compound 176]	≤ 2000 nM
Cn1ncc2c1-c1ccccc1OC21CCN(C(=O)c2ccc(C3(O)COC3)cc2)CC1 [Compound 418]	2000 to 5000 nM
O=C(c1ccc(S(=O)(=O)NC2CC2)cc1)N1CCC2(CC1)Oc1ccccc1-n1c(C(F)(F)F)ccc12 [Compound 541]	≤ 2000 nM
Cn1ncc2c1-c1ccccc1OC21CCN(C(=O)c2cccc3c2cnn3C)CC1 [Compound 867]	≤ 2000 nM
Cc1cc(C(=O)N2CCC3(CC2)Oc2ccccc2-c2c3ncn2C)ccc1OC(C)C [Compound 583]	≤ 2000 nM

More lines, now with the values ahead:

IC50	Compound
≤ 2000 nM	CC(C)NS(=O)(=O)c1ccc(C(=O)N2CCC3(CC2)Oc2ccc(F)cc2-c2nn(C)cc23)cc1 [Compound 580]
≤ 2000 nM	COc1cc(C(=O)N2CCC3(CC2)Oc2cccnc2-n2cccc23)ccc1O[C@@H]1CCOC1 [Compound 533]
≤ 2000 nM	Cc1ccc(C(=O)N2CCC3(CC2)Oc2ccccc2-n2c3ccc2S(C)(=O)=O)cc1Cl [Compound 793]
≤ 2000 nM	Cc1cc(C(=O)N2CCC3(CC2)Oc2ccccc2-n2c(CNC=O)ccc23)ccc1OC(C)C [Compound 677]
≤ 2000 nM	CC(C)Oc1ccc(C(=O)N2CCC3(CC2)Oc2ccccc2-c2c3cnn2C)c(OC(C)C)c1 [Compound 788]
≤ 2000 nM	COc1ccc(C(=O)N2CCC3(CC2)Oc2ccccc2-c2c3cnn2C(F)(F)F)cc1OC [Compound 890]
≤ 2000 nM	COCCOc1ccc(C(=O)N2CCC3(CC2)Oc2cc(F)ccc2-n2cccc23)cc1OC [Compound 305]
≤ 2000 nM	COc1ccc(C(=O)N2CCC3(CC2)Oc2cc(Cl)ccc2-n2cccc23)cc1C(F)(F)F [Compound 857]
≤ 2000 nM	COCCOc1ccc(C(=O)N2CCC3(CC2)Oc2ccccc2-n2c(C(C)=O)ccc23)cc1OC [Compound 820]
≤ 2000 nM	O=C(c1ccccc1OC(F)F)N1CCC2(CC1)Oc1ccccc1-n1c(C(F)(F)F)ccc12 [Compound 618]
≤ 2000 nM	COCCOc1ccc(C(=O)N2CCC3(CC2)Oc2ccccc2-n2c(C)ccc23)cc1OC [Compound 596]
≤ 2000 nM	Cc1nc(C(=O)N2CCC3(CC2)Oc2ccccc2-c2c3cnn2C)ccc1OC(C)C [Compound 834]
≤ 2000 nM	Cn1ncc2c1-c1ccccc1OC21CCN(C(=O)c2cccc3c2OCCO3)CC1 [Compound 346]
≤ 2000 nM	CCCOc1ccc(C(=O)N2CCC3(CC2)Oc2ccccc2-n2cccc23)cc1OC [Compound 352]
≤ 2000 nM	COc1c(C)cc(C(=O)N2CCC3(CC2)Oc2ccccc2-c2c3cnn2C)cc1C [Compound 801]
≤ 2000 nM	COc1cc(C(=O)N2CCC3(CC2)Oc2cc(Cl)ccc2-n2cccc23)ccc1OCCS(C)(=O)=O [Compound 851]
≤ 2000 nM	CC(C)(C)Sc1ccc(C(=O)N2CCC3(CC2)Oc2ccccc2-n2c(C(F)(F)F)ccc23)cc1 [Compound 879]
≤ 2000 nM	CCOc1ccccc1C(=O)N1CCC2(CC1)Oc1ccccc1-c1c2cnn1C [Compound 212]
≤ 2000 nM	CCCOc1ccc(C(=O)N2CCC3(CC2)Oc2ccccc2-c2c3cnn2C)cc1C(F)(F)F [Compound 387]
≤ 2000 nM	CC(C)(O)Cc1ccc(C(=O)N2CCC3(CC2)Oc2ccccc2-n2c(C(F)(F)F)ccc23)cc1 [Compound 682]
≤ 2000 nM	CC(C)NS(=O)(=O)c1ccc(C(=O)N2CCC3(CC2)Oc2ccccc2-n2c(C#N)ccc23)cc1 [Compound 721]
≤ 2000 nM	COc1ccc(C(=O)N2CCC3(CC2)Oc2ccccc2-n2c(C(F)(F)F)ccc23)c(OC)c1OC [Compound 164]
≤ 2000 nM	COc1cc(C)ccc1C(=O)N1CCC2(CC1)Oc1cc(Cl)ccc1-n1cccc12 [Compound 627]
≤ 2000 nM	CCc1ccc(C(=O)N2CCC3(CC2)Oc2cc(C#N)ccc2-n2cccc23)cc1OC [Compound 511]
≤ 2000 nM	COc1ccc2c(c1)-c1c(cnn1C)C1(CCN(C(=O)c3ccccc3OC)CC1)O2 [Compound 16]
≤ 2000 nM	CCCOc1ccc(C(=O)N2CCC3(CC2)Oc2cccnc2-n2cccc23)cc1C(F)(F)F [Compound 805]
≤ 2000 nM	CNS(=O)(=O)c1ccc(C(=O)N2CCC3(CC2)Oc2ccccc2-c2nn(C)cc23)cc1C [Compound 523]
≤ 2000 nM	N#Cc1ccc2n1-c1ccccc1OC21CCN(C(=O)c2ccccc2OC(F)F)CC1 [Compound 285]
